Source: PubChem BioAssay AID1259407 (Chemical Carcinogenesis Research Information System (CCRIS), 2018)
The source made the active and inactive calls. How the calls were made is not given here.

Test system: CCRIS mutagenicity, Ames/micronucleus/aberration tests
Assay: CCRIS mutagenicity studies
[1] = Test System: AMES SALMONELLA TYPHIMURIUM, Strain/Indicator: TA98, Metabolic Activation: NONE, Method: STANDARD PLATE
[2] = Test System: AMES SALMONELLA TYPHIMURIUM, Strain/Indicator: TA100, Metabolic Activation: NONE, Method: STANDARD PLATE
[3] = Test System: AMES SALMONELLA TYPHIMURIUM, Strain/Indicator: TA1535, Metabolic Activation: NONE, Method: STANDARD PLATE

For `[CH3][Sn]([Cl])([Cl])[Cl]`, the mutagenic call (Test System: AMES SALMONELLA TYPHIMURIUM, Strain/Indicator: TA98, Metabolic Activation: NONE, Method: SUSPENSION/PLATE) was “inactive; negative” and the mutagenic call (Test System: AMES SALMONELLA TYPHIMURIUM, Strain/Indicator: TA100, Metabolic Activation: NONE, Method: SUSPENSION/PLATE) was “inactive; negative”.

In the case of `O=[N+]([O-])O.O=[N+]([O-])O.[Cd+2]`, the mutagenic call (Test System: E. COLI, Strain/Indicator: DG1153, Metabolic Activation: NONE, Method: FLUCTUATION TEST) is reported as “active; positive”.

With `CN(N=O)C(=O)c1c(N(C)N=O)ncn1C` the mutagenic call [1] was “inactive; negative”, the mutagenic call (Test System: AMES SALMONELLA TYPHIMURIUM, Strain/Indicator: TA98, Metabolic Activation: S-9, Method: STANDARD PLATE) was “inactive; negative” and the mutagenic call [2] was “active; positive”. The mutagenic call (Test System: AMES SALMONELLA TYPHIMURIUM, Strain/Indicator: TA100, Metabolic Activation: S-9, Method: STANDARD PLATE) was “active; positive”, the mutagenic call (Test System: AMES SALMONELLA TYPHIMURIUM, Strain/Indicator: TA102, Metabolic Activation: NONE, Method: STANDARD PLATE) was “active; positive” and the mutagenic call (Test System: AMES SALMONELLA TYPHIMURIUM, Strain/Indicator: TA102, Metabolic Activation: S-9, Method: STANDARD PLATE) was “active; positive”. For the same compound, the mutagenic call [3] was “active; positive”, the mutagenic call (Test System: AMES SALMONELLA TYPHIMURIUM, Strain/Indicator: TA1535, Metabolic Activation: S-9, Method: STANDARD PLATE) was “active; positive” and the mutagenic call (Test System: AMES SALMONELLA TYPHIMURIUM, Strain/Indicator: TA1537, Metabolic Activation: NONE, Method: STANDARD PLATE) was “inactive; negative”. The mutagenic call (Test System: AMES SALMONELLA TYPHIMURIUM, Strain/Indicator: TA1537, Metabolic Activation: S-9, Method: STANDARD PLATE) was “inactive; negative”.

With `c1ccc(-c2ccccc2OCC2CO2)cc1` (stereo unspecified) the mutagenic call [2] was “active; positive” and the mutagenic call [3] was “active; positive”.

`Cc1ccc2ccc3c4ccccc4cc4ccc1c2c43` was tested, and the mutagenic call (Test System: AMES SALMONELLA TYPHIMURIUM, Strain/Indicator: TA100, Metabolic Activation: RAT, INTACT HEPATOCYTES, AROCLOR 1254, Method: PREINCUBATION) was “active; positive” and the mutagenic call (Test System: AMES SALMONELLA TYPHIMURIUM, Strain/Indicator: TA100, Metabolic Activation: RAT, NADPH-FORTIFIED HOMOGENIZED HEPATOCYTES, AROCLOR 1254, Method: PREINCUBATION) was “active; positive”.

`O=C(c1ccc([N+](=O)[O-])cc1)[C@@H]1O[C@@H]1c1ccccc1` was tested, and the mutagenic call [1] was “inactive; negative”, the mutagenic call (Test System: AMES SALMONELLA TYPHIMURIUM, Strain/Indicator: TA98, Metabolic Activation: RAT, LIVER, S-9, AROCLOR 1254, Method: STANDARD PLATE) was “inactive; negative” and the mutagenic call [2] was “active; positive”. For the same compound, the mutagenic call (Test System: AMES SALMONELLA TYPHIMURIUM, Strain/Indicator: TA100, Metabolic Activation: RAT, LIVER, S-9, AROCLOR 1254, Method: STANDARD PLATE) was “active; positive”.
